Measurements reported in patent publication US5422344A, “Method of treating retroviral infections in mammals” (The United States of America as represented by the …, priority 1990, dated 1995).
Read-outs that look alike come from different tables or passages of the source.

Experiments:
[1] = test system: Friend virus/spleen focus forming virus (SFFV); assay: Inhibition of Friend virus disease in mice (spleen weight, IP); type: in vivo, male NFS mice; conditions: for Number Friend disease positive (spleen weight >0.2 g) / Spleen weight AVG.: 4 weeks
Description: INHIBITION OF FRIEND VIRUS DISEASE IN MICE BY CAMPTOTHECIN. […] The Friend virus/spleen focus forming virus (SFFV) mouse model was used to test CPT in vivo. SFFV is a defective type C retrovirus which induces the rapid onset of erythroleukemia, characterized by severe splenomegaly, and death of the affected animal within 3-6 weeks after innoculation. A well characterized stock of SFFV, in complex with an amphotropic murine C-type virus which induced only a low incidence of lymphoid and myloid disease after a long latency, was injected into adult mice at viral dilutions which would be expected to induce Friend erythroleukemia in essentially 100% of infected mice.
Male NFS mice were injected IP with 0.5 ml of virus stock to which CPT, disolved in DMSO, was added. The average weight of a mouse was 24 g, and CPT was added from a stock at 10 mg/ml. DMSO was added to A, E and I viral inoculum at 2.8%, the maximum level. Animals were sacrificed 4 weeks after inoculation, and spleens were weighed to determine the incidence of Friend virus induced splenomegaly.

[2] = test system: equine infectious anemia virus (EIAV); assay: EIAV replication / infection in cells; type: cell-based
[3] = test system: HIV-IIIB (HIV-1) replication in H9 cells; assay: HIV replication (RT activity) in acute infection of H9 cells; type: cell-based; conditions: for RT activity: 7 days postinfection; for RT/Cell: 1 h treatment
Protocol: HIV-Acute Infection of H9 Cells by HIV and Drug Treatment: One ml of culture supernatant of H9/HIV-IIIB cells (10^6 /ml) was used after centrifugation (200xg, 20 min) and filtration (0.45 μm) for infecting 10^5 H9 cells in the presence or absence of different levels of CPT, m-AMSA or VP-16. Control cells received equivalent volumes of DMSO. The cells were incubated for 1 h at 37° C., pelleted, washed and resuspended in fresh media. […] (1981) J. Virol. 38: 239-48.
CPT Inhibition of HIV Replication Following Acute Infection of H9 Cells with HIV-IIIB. In order to determine appropriate concentrations of CPT which would permit cell viability and growth while inhibiting viral infection or replication, H9 cells were infected with HIV-IIIB as described above in the absence or presence of different CPT doses. The cells were incubated for 1 h at 37° C., pelleted, washed and resuspended in fresh media. Reverse transcriptase (RT) activity in the culture media was measured seven days after infection.
Since CPT is an anticancer drug and a known topo I inhibitor, its effects on HIV replication were compared to those of other anticancer drugs which are known to inhibit the related topoisomerase II enzyme.

[4] = test system: Spleen Focus Forming Virus (SFFV); assay: Inhibition of disease induction in vivo by SFFV, IV or IP; parameters: species or system NFS mice; conditions: CPT 20 mg/kg; for # diseased mice (diseased/injected) / AVG. spleen WT.: 4 weeks
Protocol: Inhibition of Disease Induction In Vivo by Spleen Focus Forming Virus (SFFV) by Intravenous or Intraperitoneal Infection of CPT. In a repeat and extension of the previous experiment, NFS mice were injected either intraperitoneally or intravenously with dilutions of infectious virus stock in the presence or absence of CPT. Virus was mixed with stocks of CPT dissolved in DMSO at 10 mg/ml and adjusted so that mice were treated at 20 mg/kg. In samples without CPT, DMSO was added to an equivalent concentration (9.6%). In both IP and IV injections, 0.5ml was injected per mouse. Animals were monitored and sacrificed 4 weeks after injection. Spleens were weighed, and a spleen weight in excess of 0.2 gm was judged positive for SFFV disease.

[5] = group B, virus dil. 1/500, CPT 5 mg/kg IP
[6] = group C, virus dil. 1/500, CPT 10 mg/kg IP
[7] = group D, virus dil. 1/500, CPT 20 mg/kg IP
[8] = group F, virus dil. 1/2000, CPT 5 mg/kg IP
[9] = group G, virus dil. 1/2000, CPT 10 mg/kg IP
[10] = group H, virus dil. 1/2000, CPT 20 mg/kg IP
[11] = group J, no virus, CPT 5 mg/kg IP
[12] = group K, no virus, CPT 10 mg/kg IP
[13] = group L, no virus, CPT 20 mg/kg IP

Structure (SMILES): CC[C@@]1(O)C(=O)OCc2c1cc1n(c2=O)Cc2cc3ccccc3nc2-1 [CPT, Camptothecin]
- Number Friend disease positive (spleen weight >0.2 g) [1, 5]: 4/5
- Spleen weight AVG. [1, 5]: 0.78 g
- Number Friend disease positive (spleen weight >0.2 g) [1, 6]: 3/5
- Spleen weight AVG. [1, 6]: 0.84 g
- Number Friend disease positive (spleen weight >0.2 g) [1, 7]: 4/5
- Spleen weight AVG. [1, 7]: 0.28 g
- Number Friend disease positive (spleen weight >0.2 g) [1, 8]: 1/5
- Spleen weight AVG. [1, 8]: 0.22 g
- Number Friend disease positive (spleen weight >0.2 g) [1, 9]: 0/5
- Spleen weight AVG. [1, 9]: 0.18 g
- Number Friend disease positive (spleen weight >0.2 g) [1, 10]: 1/5
- Spleen weight AVG. [1, 10]: 0.22 g
- Number Friend disease positive (spleen weight >0.2 g) [1, 11]: 0/5
- Spleen weight AVG. [1, 11]: 0.12 g
- Number Friend disease positive (spleen weight >0.2 g) [1, 12]: 0/5
- Spleen weight AVG. [1, 12]: 0.10 g
- Number Friend disease positive (spleen weight >0.2 g) [1, 13]: 0/5
- Spleen weight AVG. [1, 13]: 0.12 g
- induction of erythroleukemia by SFFV ([1]; in vivo): blocks the induction of erythroleukemia by SFFV in vivo
- effect on number of mice with enlarged spleens and average spleen weight ([1]; vs control, virus infected mice): reduced the number of mice showing enlarged spleens and the average spleen weight
- inhibiting the initiation of infection by EIAV ([2]; cell culture): has been demonstrated
- EIAV replication ([2]; chronically-infected cells): inhibits equine infectious anemia virus (EIAV) replication in chronically-infected cells
- RT activity ([3]; 0.005 μM CPT, 1 h): 429 ± 116 cpm/cell 10^5
- RT/Cell ([3]; 0.005 μM CPT, day 7 after infection): 5400 cpm/10^5 Cell
- RT/Cell ([3]; 0.005 μM CPT, day 8 after infection): 34268 cpm/10^5 Cell
- RT/Cell ([3]; 0.005 μM CPT, day 9 after infection): 102450 cpm/10^5 Cell
- RT activity ([3]; 0.01 μM CPT, 1 h): 528 ± 40 cpm/cell 10^5
- RT/Cell ([3]; 0.01 μM CPT, day 7 after infection): 5085 cpm/10^5 Cell
- RT/Cell ([3]; 0.01 μM CPT, day 8 after infection): 33968 cpm/10^5 Cell
- RT/Cell ([3]; 0.01 μM CPT, day 9 after infection): 112870 cpm/10^5 Cell
- RT activity ([3]; 0.02 μM CPT, 1 h): 400 ± 103 cpm/cell 10^5
- RT/Cell ([3]; 0.02 μM CPT, day 7 after infection): 29.7 cpm/10^5 Cell
- RT/Cell ([3]; 0.02 μM CPT, day 8 after infection): 325 cpm/10^5 Cell
- RT/Cell ([3]; 0.02 μM CPT, day 9 after infection): 65761 cpm/10^5 Cell
- inhibition of HIV production ([3]; 0.05 μM CPT, 8 and 9 days after infection): essentially complete inhibition of HIV production
- RT activity ([3]; 0.05 μM CPT, 1 h): 235 ± 62 cpm/cell 10^5
- RT/Cell ([3]; 0.05 μM CPT, day 7 after infection): 0.03 cpm/10^5 Cell
- RT/Cell ([3]; 0.05 μM CPT, day 8 after infection): 1.5 cpm/10^5 Cell
- RT/Cell ([3]; 0.05 μM CPT, day 9 after infection): 9.4 cpm/10^5 Cell
- RT activity ([3]; 0.1 μM CPT, 1 h): 106 ± 30 cpm/cell 10^5
- RT activity ([3]; 0.2 μM CPT, 1 h): 139 ± 96 cpm/cell 10^5
- inhibitory effect on HIV replication ([3]; 0.005-0.02 μM CPT, 1 h, 7 days after infection): 89-93%
- effect of 1 hour exposure during viral infection on HIV replication ([3]; 1 hour exposure): sufficient to prevent HIV replication
- inhibition at 0.005 µM ([3]; Human immunodeficiency virus 1, IIIB, H9, read-out: RT % Inhibition, 0.005 μM CPT, 1 h treatment, day 7 after infection): 84%
- inhibition at 0.005 µM ([3]; Human immunodeficiency virus 1, IIIB, H9, read-out: RT % Inhibition, 0.005 μM CPT, 1 h treatment, day 8 after infection): 74%
- inhibition at 0.005 µM ([3]; Human immunodeficiency virus 1, IIIB, H9, read-out: RT % Inhibition, 0.005 μM CPT, 1 h treatment, day 9 after infection): 24%
- inhibition at 0.01 µM ([3]; Human immunodeficiency virus 1, IIIB, H9, read-out: RT % Inhibition, 0.01 μM CPT, 1 h treatment, day 7 after infection): 85%
- inhibition at 0.01 µM ([3]; Human immunodeficiency virus 1, IIIB, H9, read-out: RT % Inhibition, 0.01 μM CPT, 1 h treatment, day 8 after infection): 75%
- inhibition at 0.01 µM ([3]; Human immunodeficiency virus 1, IIIB, H9, read-out: RT % Inhibition, 0.01 μM CPT, 1 h treatment, day 9 after infection): 17%
- inhibition at 0.02 µM ([3]; Human immunodeficiency virus 1, IIIB, H9, read-out: RT % Inhibition, 0.02 μM CPT, 1 h treatment, day 7 after infection): 100%
- inhibition at 0.02 µM ([3]; Human immunodeficiency virus 1, IIIB, H9, read-out: RT % Inhibition, 0.02 μM CPT, 1 h treatment, day 8 after infection): 98.8%
- inhibition at 0.02 µM ([3]; Human immunodeficiency virus 1, IIIB, H9, read-out: RT % Inhibition, 0.02 μM CPT, 1 h treatment, day 9 after infection): 52%
- inhibition at 0.05 µM ([3]; Human immunodeficiency virus 1, IIIB, H9, read-out: RT % Inhibition, 0.05 μM CPT, 1 h treatment, day 7 after infection): 100%
- inhibition at 0.05 µM ([3]; Human immunodeficiency virus 1, IIIB, H9, read-out: RT % Inhibition, 0.05 μM CPT, 1 h treatment, day 8 after infection): 100%
- inhibition at 0.05 µM ([3]; Human immunodeficiency virus 1, IIIB, H9, read-out: RT % Inhibition, 0.05 μM CPT, 1 h treatment, day 9 after infection): 100%
- inhibition at 0.005 µM ([3]; Human immunodeficiency virus 1, IIIB, H9, read-out: RT activity % Inhibition, 0.005 μM CPT, 1 h, 7 days postinfection): 89 ± 4%
- inhibition at 0.01 µM ([3]; Human immunodeficiency virus 1, IIIB, H9, read-out: RT activity % Inhibition, 0.01 μM CPT, 1 h, 7 days postinfection): 89 ± 4%
- inhibition at 0.02 µM ([3]; Human immunodeficiency virus 1, IIIB, H9, read-out: RT activity % Inhibition, 0.02 μM CPT, 1 h, 7 days postinfection): 93 ± 2%
- inhibition at 0.05 µM ([3]; Human immunodeficiency virus 1, IIIB, H9, read-out: RT activity % Inhibition, 0.05 μM CPT, 1 h, 7 days postinfection): 96 ± 1.5%
- inhibition at 0.1 µM ([3]; Human immunodeficiency virus 1, IIIB, H9, read-out: RT activity % Inhibition, 0.1 μM CPT, 1 h, 7 days postinfection): 98 ± 0.2%
- inhibition at 0.2 µM ([3]; Human immunodeficiency virus 1, IIIB, H9, read-out: RT activity % Inhibition, 0.2 μM CPT, 1 h, 7 days postinfection): 98 ± 0.8%
- inhibiting the initiation of infection by HIV ([3]; cell culture): has been demonstrated
- prevention of HIV replication (RT activity) ([3]; one-hour treatment, 7 days after infection): 94-100%
- # diseased mice (diseased/injected) ([4]; no virus, IP): 0/5
- AVG. spleen WT. ([4]; no virus, IP): 0.10 g
- # diseased mice (diseased/injected) ([4]; no virus, IV): 0/5
- AVG. spleen WT. ([4]; no virus, IV): 0.10 g
- injected mice died within 24 hours of causes unrelated to viral disease ([4]; virus 1/500, IP): 4/5
- # diseased mice (diseased/injected) ([4]; virus 1/500, IP): 0/1
- AVG. spleen WT. ([4]; virus 1/500, IP): 0.20 g
- # diseased mice (diseased/injected) ([4]; virus 1/500, IV): 0/5
- AVG. spleen WT. ([4]; virus 1/500, IV): 0.10 g
- injected mice died within 24 hours of causes unrelated to viral disease ([4]; virus 1/1000, IP): 3/5
- # diseased mice (diseased/injected) ([4]; virus 1/1000, IP): 0/2
- AVG. spleen WT. ([4]; virus 1/1000, IP): 0.15 g
- # diseased mice (diseased/injected) ([4]; virus 1/1000, IV): 0/5
- AVG. spleen WT. ([4]; virus 1/1000, IV): 0.12 g
